According to a melting point compilation (Tetko et al.; mined from patent text by program, amines drawn as free bases though some values may be those of a salt):

Row | Structure (SMILES) | melting point [°C]
1 | CCC1COC(=O)C(=CC(=O)OC)N1 (stereo not given) | 68 to 70
2 | CCCCCNS(=O)(=O)NC(=O)/C(C)=C/c1ccc(OCCOC)cc1Oc1ncc(C(F)(F)F)cc1Cl | 152 to 153
3 | O=C(O)CCCN(C(=O)c1ccc(Cl)c(Cl)c1)c1ccc2c(c1)CCC2 | 58 to 59
4 | C=C(Sc1ccc(C(C)(C)C)cc1)S(=O)(=O)c1ccc(Cl)cc1 | 74 to 79
5 | CCCCCCC#Cc1csc(/C=C/C(=O)O)c1 | 81
6 | COc1cc2c(cc1OC)C(c1ccc([N+](=O)[O-])c(C)c1)=NN(c1noc(=O)[nH]1)[C@H](C)C2 | 221 to 223
7 | Cc1c(Br)cc2c(c1C)OC(=O)C2(C)c1ccc(C(C)C)cc1 (stereo not given) | 116 to 117
8 | CCN1C(=O)Cc2cc(OC(=O)CCl)ccc21 | 53 to 57
9 | CCOC(=O)c1cn(C2CC2)c2nc(S(=O)(=O)c3ccc(C)cc3)c(F)cc2c1=O | 216 to 218
10 | CNC(=O)c1cnn2c(C(=O)N3CCNCC3)c(Cc3cccc(F)c3C)c(-c3ccccc3)c2c1 | 208 to 210
11 | COC(=O)C1Oc2ccccc2C(C)c2ccccc2O1 (stereo not given) | 95 to 120
12 | O=C(NCc1ccc(Cl)cc1)c1cn2c3c(cc(CN4CCOCC4)cc3c1=O)OC(c1ccc(O)cc1)C2 (stereo not given) | > 260
13 | CC(=O)Nc1nc(CCc2ccc(N)cc2)c(C(=O)Nc2ccccc2)s1 | 104 to 105
14 | O=C(CCCc1ccccc1)N[C@H](Cc1ccc(F)cc1)[C@@H](O)c1ccc(F)cc1 (racemic) | 147 to 148
15 | FC(F)(F)c1ccc2nc(N3CCN(c4ncncc4Cl)CC3)[nH]c2c1 | 66.6 to 66.7
16 | Cn1cccc1C(=O)NCCN1CCC(Nc2nc3ccccc3n2Cc2ccc(CO)o2)CC1 | 182
17 | CCNC=C(C(=O)C=Cc1cccnc1)C(=O)OC | 78 to 80
18 | COc1cc(Nc2c(C#N)cnc3cc(OC)c(Br)cc23)c(Cl)cc1Cl | 256 to 257
19 | CC1(C)[C@@H](CN2CCCCC2)CC[C@@]1(C)NCC(=O)N1C[C@@H](F)C[C@H]1C#N | 100 to 103
20 | O=C(O)CCCNC(=O)[C@@H](Cc1ccccc1)C[C@H](Cc1ccccc1)C(=O)O (relative stereo) | 127 to 129
21 | COc1ccc(N(C(=O)CN2C(=O)C(Cc3cc(C)n[nH]3)C(=O)N(c3ccccc3)c3ccccc32)C(C)C)cc1 (stereo not given) | 156 to 159
22 | O=C1c2ccccc2C(=O)N1CC(=O)N1c2ccccc2N(CCCc2ccccc2)C(=O)[C@H]2CCC[C@H]21 (relative stereo) | 192 to 193
23 | CC(C(=O)O)c1ccc(CC2CCCC2=NO)cc1 (stereo not given) | 146 to 148
24 | COc1cccc2c1nc(C(F)F)n2-c1nc(N2CCOCC2)cc(N2C[C@@H](C)O[C@@H](C)C2)n1 | 132 to 134
25 | CC(C)(C)[Si](C)(C)Oc1c(I)cc(Cl)c2cccnc12 | 65 to 67

Row | Structure (SMILES) | melting point [°C]
26 | CCOC(C)(C)C#Cc1ncn2c1CN(C)C(=O)c1cc(F)ccc1-2 | 136 to 138
27 | C#CCOc1cc(Oc2cccc(Cl)c2)ncn1 | 71.6
28 | COC(=O)c1cccc(-c2ccc(OC)c(OC3CCCC3)c2)c1 | 85 to 87
29 | NC(=O)C1COCCN1C1CC1 (stereo not given) | 116
30 | CCc1cccc(CC)c1NC(=S)NC(C)(C)CC | 85 to 87
31 | COc1c(N2CC[C@H]([C@@H](C)NC(=O)OC(C)(C)C)C2)c(F)cc2c(=O)n(N)c(=O)n(C3CC3)c12 | 96 to 98
32 | CC1Cc2c(N=C=O)ccc(Cl)c2O1 (stereo not given) | 169 to 171
33 | CN1CCC(=C2c3cc(C#N)ccc3C=Cn3cccc32)CC1 | 156 to 159
34 | COc1ccc(-c2nc(CNC(=O)c3ccc4n3Cc3ccccc3N(C(=O)c3ccc(-c5ccccc5C)c(C)c3)C4)no2)cc1 | 133 to 135
35 | COCCN(C)CC(=O)N(C)Cc1ccc(C(=O)Nc2nc3c(OC)ccc(N4CCOCC4)c3s2)cc1 | 171 to 173
36 | Cc1ccc([C@H]2CCCN2[S@@](=O)C(C)(C)C)cc1 | 62 to 64
37 | N#Cc1cnn2c1N(C(=O)CCl)CC=C2c1ccc(Cl)cc1 | 198 to 199
38 | CCc1ccc2c(c1)C=Cc1cc(C)ccc1C2c1cn(-c2ccnc(N3CCCC3C(=O)O)n2)c(=O)[nH]c1=S (stereo not given) | 175
39 | CC1=C(c2ccncc2)SC(C)C(=O)N1 (stereo not given) | 144 to 146
40 | COC(=O)c1ccc(C(=O)NS(=O)(=O)c2ccc(C(=O)NCCc3ccccc3)cc2)cn1 | 228 to 230
41 | CC(=O)Nc1ccc(S(=O)(=O)N2CCN(C)CC2)cc1 | 184
42 | CC1(C)CCc2ccccc2C1c1cncnc1SCF (stereo not given) | 126 to 128
43 | COC(=O)c1ccc2c(c1)-c1c(c(C(=O)C(C#N)C(=O)Nc3ccccc3)nn1-c1ccccc1)CS2 (stereo not given) | 228 to 230
44 | COC(=O)c1cn(-c2ccc(F)cc2)c(-c2ccc(Cl)cc2)cc1=O | 250 to 254
45 | O=C(NCCc1ccccc1)[C@@H]1Cc2ccccc2N1S(=O)(=O)c1cccc(CNC(=O)C(F)(F)F)c1 | 70
46 | CN(C)CCN/C(=C1/Sc2ccccc2C1=O)c1ccccc1 | 123 to 125
47 | N#CSCSc1nc(Cl)c(Cl)nc1Cl | 90 to 93
48 | COc1ccc2c(c1Cl)CCCC2=O | 130 to 131
49 | COCc1cc(OC)c(C=O)c(OC)c1 | 72 to 76
50 | CCOC(=O)c1ccc2cncc(I)c2n1 | 135 to 137

Row | Structure (SMILES) | melting point [°C]
51 | CCOc1ccccc1N1CCN(CCCC2CN(C)C(=O)O2)CC1 (stereo not given) | 79 to 81
52 | NS(=O)(=O)c1ccc(S(=O)(=O)CCCO)c([N+](=O)[O-])c1 | 168 to 170
53 | COC(=O)c1ccc(Cn2nc(OC)c3ccc(N)cc32)c(OC)c1 | 188 to 193
54 | CCOC1(OCC)CCc2c(ccc3c(=O)c4cc(C(=O)O)ccc4oc23)O1 | 191 to 193
55 | CCC1(CC)C(=O)N(CC(O)Cc2cc(C)c(O)c(C(C)(C)C)c2)C(=O)N(CC(O)Cc2cc(C)c(O)c(C(C)(C)C)c2)C1=O (stereo not given) | 147 to 148
56 | CC(C)(C)C(=O)Nc1nc(O)c2c(n1)NCC(CO)C2 (stereo not given) | 236 to 238
57 | CC(C)NC(=O)C(O)C(Oc1ccccc1)c1ccc(Cl)cc1 (stereo not given) | 175 to 177
58 | CCn1cc(C(=O)NC2CCCCC2)c(=O)c2cnc(N3CCCC3)nc21 | 265 to 267
59 | CCOC(=O)CC(=O)c1ccc(N)cc1 | 82 to 84
60 | Cc1nc(-c2ccccc2)cc(-c2cccc(C#N)c2)c1NC(=O)CCN1CCOCC1 | 150 to 152
61 | COc1nc2c(c(OC)n1)C(c1cc(OC)c(OC)c(OC)c1)C1=C(COC1=O)N2 (stereo not given) | 299 to 300
62 | O=C(C1CCN(c2ccncc2)CC1)N1CCN(Cc2ccc(Br)cc2)CC1 | 148 to 149
63 | CN(C)c1ccc(C(=O)NC(=O)Nc2ccc3c(c2)NC(=O)/C3=C\c2ccc[nH]2)cc1 | 285 to 290
64 | Cc1nccn1CCCNC(=O)c1cc2ccccc2[nH]1 | 235 to 237
65 | CCN(CC)C(=O)c1ccoc1-c1ccc(C(F)(F)F)cc1 | 45 to 48
66 | COC(=O)C(=O)c1ccc(S(=O)(=O)CCOc2ccc3ccccc3c2)cc1 | 110 to 111
67 | CC(=O)OC(CF)c1cccnc1S(N)(=O)=O (stereo not given) | 127 to 129
68 | O=C(O)CC(CSc1nc2ccccc2[nH]1)C(=O)O (stereo not given) | 165 to 168
69 | C[C@@H]1O[C@](/C=C/C2CC2)(C(F)(F)F)c2c(ccc(F)c2F)NC1=O (relative stereo) | 192 to 193
70 | CCCc1nc2c(N)nc3cc(OC4CCOC4)ccc3c2n1CC(C)C (stereo not given) | 178 to 182
71 | CCOC(=O)c1cn(-c2cc(N)c(F)cc2F)c2c(C)c(F)c(F)c(N)c2c1=O | 134 to 135
72 | Cn1c([N+](=O)[O-])cnc1C1=NOC2CCCCC12 (stereo not given) | 119 to 121
73 | COC(=N[N+](=O)[O-])NCc1cnc(Cl)s1 | 133 to 135
74 | CCCOc1cc(C)ccc1C1=NC(=O)C2=NC=NC2=N1 | 323 to 325
75 | CCCCCCN(Cc1ccccc1)c1c(N[C@@H](Cc2ccccc2)C(=O)O)c(=O)c1=O | 61 to 65

Row | Structure (SMILES) | melting point [°C]
76 | CC=CCOc1cc(OC)cc(C(=O)OC)c1 | 140 to 141
77 | CCN1CCc2cc(Nc3ncc(Cl)c(Nc4ccccc4C(=O)NC)n3)c(OC)cc2CC1 | 195 to 211
78 | O=S(=O)(NCC(O)(Cn1cncn1)c1ccc(Cl)cc1Cl)c1ccc(C(F)(F)F)cc1 (stereo not given) | 165 to 166
79 | CSC(=S)NN=Cc1ccccn1 | 171 to 173
80 | O=C1Cc2cc3cc(OCCCC(=O)N4CCN(CC5CCCCC5)CC4)ccc3nc2N1 | 212
81 | NS(=O)(=O)c1ccc(NC(=O)CCl)c(Br)c1 | 174 to 175
82 | COc1cc(OC)c2c(=O)cc(-c3ccc(N(C)C)cc3)oc2c1C1=CCN(C)CC1 | 148 to 150
83 | CNC=Nc1cnc2ccccc2c1 | 142 to 143
84 | N#Cc1ccc(OCCCCCCCCCCCCOc2ccc(C#N)c(C#N)c2)cc1C#N | 104 to 107
85 | CCC(O)c1ccc(-c2ccc(Cl)cc2)o1 (stereo not given) | 74 to 75
86 | CCCCc1cc2ccccc2c(Oc2ccc(/C=C/C(=O)O)cc2)c1-c1ccc(O)cc1 | 107 to 109
87 | CCCc1nc2c(N)nc3cc(OCCOCc4ccccc4)ccc3c2s1 | 142 to 145
88 | COc1c(C=NO)ccc2c1OCO2 | 118 to 119
89 | CS(=O)(=O)Nc1ccc(Cn2c(=O)n(Cc3ccc(C(F)(F)F)cc3)c3ccccc32)cc1 | 193 to 197
90 | COc1ccc(/C=C/C(=O)c2c(OC)cc(OC)cc2OC(=O)[C@H](C)NC(=O)OCc2ccccc2)cc1 | 163 to 164
91 | O=[N+]([O-])Cc1cccc(OCc2ccccc2)c1 | 55 to 56
92 | Cc1cc2c3c(c1)NC(=O)c1ccccc1N3CC2 | 222 to 224
93 | Cc1cc([N+](=O)[O-])c(Cl)c([N+](=O)[O-])c1C | 109 to 111
94 | COc1ccc(-c2cnc(C=NN3CC(=O)NC3=O)o2)cc1 | 291 to 294
95 | O=S(=O)(c1c(Br)c(Br)n(CCl)c1-c1ccc(Cl)cc1)C(F)(F)F | 153 to 156
96 | CN1CCC(c2cc3cccc(O)c3o2)CC1 | 144 to 146
97 | CCCCNC(=O)c1ccc(N2CCN(c3ccncc3)CC2)cc1 | 172 to 174
98 | CC(C)(C)OC(=O)CC1(SN=O)C2CC3CC(C2)CC1C3 (stereo not given) | 85 to 87
99 | O=C(O)CC1CSc2sccc2C1=O (stereo not given) | 124 to 127
100 | C=C1C(=C)C2OC1C1=C2Cc2c(cccc2OC)C1 (stereo not given) | 145 to 147
